Assays:
Type in all cases: cell-based
[1] = tested on: Mouse adrenocortical Y1 cell line; assay: Y1 cell growth, cell counting; settings: 40 µM astaxanthin, 1, 2 or 3 days of treatment, compared with control (DMSO treated) group; Figures 1 and 2
Procedure: (§1) Mouse adrenocortical Y1 cell line (ATCC, ATCC® CCL-79™) was grown in Dulbecco's modified Eagle medium (DMEM)-F12 supplemented with 10% fetal bovine serum at 37°C in a humidified atmosphere at 5% CO2.
(§2) Astaxanthin (Model NO: ATP-9601A; Yuan Yu Bio-Tech (Taiwan), Co., Ltd) was dissolved in dimethyl sulfoxide (DMSO) at concentration of 20 mM as stock solution.
(§3) The Y1 cells were incubated with DMSO or 40 µM of astaxanthin for 1, 2 or 3 days before analysis.

[2] = tested on: Mouse adrenocortical Y1 cell line; assay: MTT assay of Y1 cell viability; settings: Y1 cells, 40 µM astaxanthin for 48 hours, compared with DMSO treated group, Fig. 3
Procedure: as §1, §2, §3
(§4) Cells were washed with PBS after the treatment, followed by addition of 1 ml MTT (3-(4,5-cimethylthiazol-2-yl)-2,5-diphenyl tetrazolium bromide) solution (2 mg/ml in PBS) in each well. After incubation for 3 hours at 37°C, 2 ml of DMSO was added and cells were incubated in the dark for 30 minutes. Absorbance was measured at the wavelength of 570 nm (OD570).

Human U87MG [3] = assay: U87MG cell growth, cell counting; settings: 100, 200 or 400 µM astaxanthin for 24 hours or 48 hours, cell numbers counted, vs DMSO; Figure 4
Procedure: (§5) Human U87MG (ATCC, ATCC® HTB-14™) cell line was grown in DMEM medium supplemented with 10% fetal bovine serum at 37°C in a humidified atmosphere at 5% CO2. M059K (ATCC, ATCC® CRL-2365™) and M059J (ATCC, ATCC® CRL-2366™) cell lines were grown in Dulbecco's modified Eagle medium (DMEM)-F12 supplemented with 10% fetal bovine serum at 37°C in a humidified atmosphere at 5% CO2.
(§6) Astaxanthin was dissolved in dimethyl sulfoxide (DMSO) at concentration of 20 mM as stock solution.
(§7) The U87MG, M059K, and M059J cell lines were treated with DMSO or 100, 200 or 400 µM of astaxanthin for 24 hours or 48 hours and cell numbers were counted.

Human U87MG [4] = assay: MTT assay of U87MG cell viability; settings: DMSO or different concentrations of astaxanthin, Figures 5A and 5B
Procedure: as §4, §5, §6, §7

M059K = M059K cell growth, cell counting; settings: 100, 200 or 400 µM astaxanthin for 24 hours or 48 hours, cell numbers counted, vs DMSO; Figure 6
Procedure: as §5, §6, §7

M059J = M059J cell growth, cell counting; settings: 100, 200 or 400 µM astaxanthin for 24 hours or 48 hours, cell numbers counted, vs DMSO; Figure 7
Procedure: as §5, §6, §7

Human U2OS = assay: U2OS cell growth, cell counting; settings: 100, 200 or 400 µM astaxanthin for 72 hours, cell numbers counted, vs DMSO; Figure 8
Procedure: Human U2OS (ATCC, ATCC® HTB-96™) cell line was grown in DMEM medium supplemented with 10% fetal bovine serum at 37°C in a humidified atmosphere at 5% CO2.
as §6
The U2OS cell line was treated with DMSO or 100, 200 or 400 µM of astaxanthin for 72 hours and cell numbers were counted.

## CC1=C(/C=C/C(C)=C/C=C/C(C)=C/C=C/C=C(C)/C=C/C=C(C)/C=C/C2=C(C)C(=O)C(O)CC2(C)C)C(C)(C)CC(O)C1=O (stereo not shown) [astaxanthin, Astaxanthin]
[1]
  number of Y1 cells: reduced
[2]
  OD570: reduced
Human U87MG [3]
  U87MG cell growth: inhibited U87MG cell growth in a dose-dependent and time-dependent manner
Human U87MG [4]
  viability of U87MG cells: reduced
M059K
  M059K cell growth: inhibited
M059J
  M059J cell growth: inhibited
Human U2OS
  U2OS cell growth: inhibited U2OS cell growth in a dose-dependent manner

From patent publication EP3153160A1, “USE OF XANTHOPHYLLS FOR THE TREATMENT OF CANCERS” (Lu, Chuen Wei, priority 2015, dated 2017)
